We go through 1 compound from patent publication US20130165489A1, “Small Molecule Modulators of HIV-1 Capsid Stability and Methods Thereof” (The Trustees of the University of Pennsylvania, priority 2010, published 2013).

Entries after “also recorded” stand apart in the source; their conditions may differ.

Series [1] has as its system HIV-1 93IN101 (subtype C clinical isolate). The series is described as follows: Anti-HIV efficacy in human PBMCs, isolate 93IN101. Type of series: cell-based. As for the experimental part:
(§1) HIV human peripheral blood mononuclear cell (PBMC) assays were performed as described previously (Lanier et al., 2010, Antimicrob. Agents Chemother. 54:2901-09; Ptak et al., 2008, Antimicrob. Agents Chemother. 52:1302-17). Briefly, fresh PBMCs, seronegative for HIV and hepatitis B virus (HBV), were isolated from blood samples of the screened donors (Biological Specialty Corporation, Colmar, Pa.) by using lymphocyte separation medium (LSM; density, 1.078±0.002 g/ml; Cellgro; Mediatech, Inc.) by following the manufacturer's instructions. Cells were stimulated by incubation in 4 μg/mL phytohemagglutinin (PHA; Sigma) for 48 to 72 h. Mitogenic stimulation was maintained by the addition of 20 U/mL recombinant human interleukin-2 (rhIL-2; R&D Systems, Inc.) to the culture medium. PHA-stimulated PBMCs from at least two donors were pooled, diluted in fresh medium, and added to 96-well plates at 5×10^4 cells/well. Cells were infected (final multiplicity of infection [MOI] of ≅0.1) in the presence of 9 different concentrations of test compounds (triplicate wells/concentration) and incubated for 7 days. […] Following removal of supernatant samples, compound cytotoxicity was measured by the addition of 3-(4,5-dimethylthiazol-2-yl)-5-(3-carboxymethoxyphenyl)-2-(4-sulfophenyl)-2H-tetrazolium (MTS; CellTiter 96 reagent; Promega) by following the manufacturer's instructions. […]

Series [2] concerns HIV-1 92UG031 (subtype A clinical isolate). The series is described as follows: Anti-HIV efficacy in human PBMCs, isolate 92UG031. Type of series: cell-based. As to the method: as §1
Series [3] deals with HIV-1 CMU08 (subtype E clinical isolate). Briefly: Anti-HIV efficacy in human PBMCs, isolate CMU08. Type of series: cell-based. As to the method:
as §1

For a further series, the system named is Vaccinia. Briefly: microbe, parasite or virus in culture. Type of series: cell-based.
Another series relates to mutant HIV-1 CA proteins. Briefly: Binding site analysis via SPR, mutant CA proteins. Particulars: alanine mutants of residues 137 and R173, 27.5 μM. As to the method:
Wild-type and mutant HIV-1 CA proteins were attached to the surface by standard amine chemistry as described above. Compound CMPD-E was injected over these surfaces at a concentration of 27.5 μM at a flow rate of 50 μL min^−1, for a 2-min association phase, followed by a 5-min dissociation phase, and the response at equilibrium recorded. For comparison, and to take into account minor differences in the ligand density of the mutant surfaces, responses were normalized to the theoretical Rmax, assuming a 2:1 interaction.
Data analysis was performed using BIAEvaluation 4.0 software. The responses of a buffer injection and responses from the reference flow cell were subtracted to account for nonspecific binding. In order to obtain the equilibrium dissociation constants (KD), experimental data were fitted globally to the heterogeneous ligand model. The average parameters generated from a minimum of 4 data sets were used to define the equilibrium dissociation constants (KD1 and KD2). In the mutant CA protein studies, the average maximum response was generated from a minimum of 6 data sets and was used to define the average maximum response for compound CMPD-E binding to wild-type and mutant HIV-1 CA proteins.
(SPR reads the build-up and loss of mass on a sensor chip optically.)

Series [4] deals with recombinant luciferase-expressing HIV-1 bearing the envelope glycoprotein of the HIV-1YU-2 strain. Briefly: Single-round infection assay, HIV-1 with YU-2 envelope on Cf2Th-CCR5 cells.
The next series is described as follows: in vitro. The note with it: African green monkey.
The mark [5] stands for this setting: Human immunodeficiency virus 1, PBMC.

The IC50 is the concentration that inhibits the measured activity by half. For the compound `O=C(O)c1ccc(-c2nc(-c3ccccc3)c(-c3ccccc3)[nH]2)cc1` [CMPD-E, 4-(4,5-diphenyl-1H-imidazol-2-yl)benzoic acid], the IC50 in series [1] (setting [5]) is 48.4 µM; in series [2] (setting [5]), 93.6 µM; in series [3] (setting [5]), 100 µM; in the series on Vaccinia (Orthopoxvirus vaccinia), above 100 µM; in series [4] (Human immunodeficiency virus 1, Cf2Th-CCR5, read-out: IC50 against HIV-1 (single-round infection)), 22.5 ± 1.1 µM. Besides, the “Antiviral index (TC50/IC50)” value in series [1] (PBMC) is above 2.07; in series [2] (PBMC) it was above 1.07; in series [3] (PBMC), above 1. The “effect on Vaccinia replication” value with Vaccinia (up to 100 μM) is on record as “no inhibitory effects”. The “reduction of binding to mutant CA compared to wild-type CA” value in the series with mutant HIV-1 CA proteins was above 2 fold. The “activity in the single-round infection assay” value in series [4] (Cf2Th-CCR5 cells, YU-2 envelope) is “retained the activity of the parental molecule; also recorded: retained all of the inhibitory capability of the parental compound”. Moreover, the CC50 in “in vitro” was above 100 µM.
